From patent publication US6369297B1, “Inducible one-component plant gene tagging” (Academia Sinica, priority 2000, dated 2002) come the findings set out here.

Molecules are shown by their SMILES.

Data set [1] deals with INAc transposition. In words: 5-azacytidine as second inducer of transposition in tobacco seedlings harboring INAc. The class given is in vivo. Conditions: 0.1 mM 5-azacytidine combined with 1 mM SA. An excerpt: Other inducers. Given that 5-azacytidine was recently shown to enhance Ac excision in transformed plants (Scortecci et al., Plant Cell Physiol. 38:336-343, 1997), the use of this agent was examined as a second inducer to trigger transposition events in tobacco seedlings harboring INAc.

The subject of data set [2] is INAc transposition (PR-1a::TPase). As to the kind of experiment: SA induction of INAc transposition in flowering tissue; LUC assay of HygR R1 progeny. The format is in vivo, tobacco. As for the experimental part:
(§1) Assay of reporter gene activities. Luciferase activity was determined as described in Howell et al., “Use of the firefly luciferase gene as a reporter of gene expression in plants,” In: Gelvin et al., eds, Plant Molecular Biology Manual, pp. B8/1-B8/11, Kluwer Academic Publishers, Dordrecht, 1989; using a Lumat LB 9501 luminometer (Berthold, Munich, Germany). For imaging of luciferase activity, hygromycin-resistant (Hyg^R) seedlings were sprayed with luciferin, incubated in the dark for 5 minutes, and then placed under a charge-coupled device camera (ChemiImager 4000; Alpha Innotech, San Leandro, Calif.) for detection of luminescence. Image acquisition and processing were performed with AlphaEase software (Alpha Innotech). Exposure time was 30 minutes.
Analysis of SA-induced transposition in R1 progeny of transformed tobacco plants. An important feature of an inducible transposable element is its susceptibility to induced transposition in germinal tissue. Such susceptibility markedly increases the probability of success of transposon tagging in the isolation of important plant genes. To determine the effectiveness of INAc for gene tagging, the induction of transposition in germ-line tissue was studied using 14 transformed tobacco plants from lines IA, IM, IN, and IP. […] The flowering tissues of plants were sprayed with SA at concentrations of 50, 5, or 1 mM, and after 2 hours these tissues were watered to remove SA. […] The R1 progeny was analyzed by comparing the germination frequency apparent on normal germination medium with that observed on germination medium containing hygromycin B, as summarized in Table 3.
The proportion of LUC^+ seedlings after selection with hygromycin B was next determined. […] A large proportion of LUC^+ seedlings was apparent for transformed plants treated with SA (Table 3).
With this approach, the efficiency of INAc transposition was determined to be 0.2, 0.7, and 3.1% for transformed plants treated with 1, 5, and 50 mM SA, respectively, as shown in Table 4.

For data set [3] the test system is unchanged. As to the kind of experiment: SA induction of INAc transposition in transgenic tobacco calli (luciferase activity of regenerated shoots). As to conditions: for shoots exhibiting high luciferase activity: line IK; for shoots with luciferase activity (transposition frequency): lines IA, IC, IM1, IN1, IP1, IR1; for shoots exhibiting luciferase activity out of shoots from SA-treated calli: 0.1 and 1 mM SA pooled. The format is cell-based. As for the experimental part:
as §1
Induction of INAc transposition. […] The effect of SA on INAc transposition was determined by incubating Hyg^R calli with a diameter of 0.5 to 1 cm for various times on callus regeneration medium containing either 0.1 or 1 mM SA. The calli for the transformed lines IA, IC, and IK were directly divided from the primary regenerated calli, which were large and generated many primary transformed shoots. For transformed lines IF, IM, IN, IP, and IR, the calli were obtained from the primary transformants IF1, IM1, IN1, IP1, and IR1. Leaf disks were excised and incubated on callus regeneration medium to yield enough calli for induction experiments. The calli were treated with 0.1 mM SA for 60 days, or were incubated with 1 mM SA for 10 days and then transferred to normal callus regeneration medium for an additional 50 days. As a control, calli were incubated on normal callus regeneration medium for 60 days. Luciferase activity was measured in the shoots that developed from the calli during incubation and was expressed as −, +, ++, or +++ as described in Table 2.
The numerical values in Table 2 indicate the number of LUC^+ shoots that were regenerated from SA-treated tobacco calli. Symbols denoting the amount of luciferase activity (RLU per microgram of total protein) are as follows: (−) <50 (with no typical luciferase activity kinetics); (+) 50 to 500 RLU; (++) 500 to 5000 RLU; and (+++)>5000 RLU.

Data set [4] concerns transformed tobacco plants. As to the kind of experiment: Germination frequency of R1 progeny and fruiting of SA-treated transformed tobacco plants. The class given is in vivo. As for the experimental part: An important feature of an inducible transposable element is its susceptibility to induced transposition in germinal tissue. Such susceptibility markedly increases the probability of success of transposon tagging in the isolation of important plant genes. To determine the effectiveness of INAc for gene tagging, the induction of transposition in germ-line tissue was studied using 14 transformed tobacco plants from lines IA, IM, IN, and IP. […] The R1 progeny was analyzed by comparing the germination frequency apparent on normal germination medium with that observed on germination medium containing hygromycin B, as summarized in Table 3.
Capsules are designated A through E.

On to `Nc1ncn([C@@H]2O[C@H](CO)[C@@H](O)[C@H]2O)c(=O)n1` [5-azacytidine], for which the “transposition efficiency versus treatment with SA alone” value in data set [1] is recorded as “higher”.
On to `O=C(O)c1ccccc1O` [SA, salicylic acid], for which the “S: Percentage of Hyg R progeny that were LUC+” value (“S: Percentage” for short) in data set [2] (1 mM SA, mean of tobacco lines IA, IM, IN, IP) was found to be 29%; in data set [2] (1 mM SA, tobacco line IA), 33%; in data set [2] (1 mM SA, tobacco line IM) it was 11%; in data set [2] (1 mM SA, tobacco line IN) it was 9%; in data set [2] (1 mM SA, tobacco line IP) it was 62%; in data set [2] (5 mM SA, mean of tobacco lines IA, IM, IN, IP) it was 47%. The “S: Percentage” value in data set [2] (5 mM SA, tobacco line IA) came to 60%; in data set [2] (5 mM SA, tobacco line IM) it was 45%; in data set [2] (5 mM SA, tobacco line IN), 15%; in data set [2] (5 mM SA, tobacco line IP) it was 68%; in data set [2] (50 mM SA, mean of tobacco lines IA, IP), 75%; in data set [2] (50 mM SA, tobacco line IA), 70%. Further, the “S: Percentage” value in data set [2] (50 mM SA, tobacco line IP) is on record as 100%. In addition, the “number of seedlings showing high luciferase activity” value is 2 seedlings in data set [2] (1 mM SA, of 1021 seedlings); 7 seedlings in data set [2] (5 mM SA, of 1000 seedlings); 1 seedling in data set [2] (50 mM SA, of 32 seedlings); 10 seedlings in data set [2] (plants exposed to SA (1, 5 or 50 mM) pooled, of 2053 seedlings). Moreover, the “G: Percentage of Hyg R progeny that exhibited high luciferase activity” value in data set [2] (1 mM SA, tobacco line IA (plant IA7)) was determined as 0.4%; in data set [2] (1 mM SA, tobacco line IM (plant IM4)) it was 0.4%; in data set [2] (1 mM SA, tobacco line IN) it was 0%; in data set [2] (1 mM SA, tobacco line IP), 0%; in data set [2] (5 mM SA, tobacco line IA (plant IA6)) it was 0.4%; in data set [2] (5 mM SA, tobacco line IM (plant IM5)), 0.8%. Moreover, the “G: Percentage of Hyg R progeny that exhibited high luciferase activity” value in data set [2] (5 mM SA, tobacco line IN) was 0%; in data set [2] (5 mM SA, tobacco line IP (plant IP9)), 1.6%; in data set [2] (50 mM SA, tobacco line IA (plant IA5)) it was 3.7%; in data set [2] (50 mM SA, tobacco line IP), 0%. In data set [2] (5 mM SA, capsule B of plant IP9), the “HygR seedlings exhibiting high luciferase activity out of seedlings screened” value was 12 out of 202. Also, the “effect of SA concentration on frequency of LUC+ seedlings / transposition events in floral tissues” value in data set [2] (1, 5, 50 mM SA) is given as “dose-dependent manner”. Also, the “LUC assay: LUC+ seedlings (activity class)/HygR seedlings assayed” value in data set [2] (plant 1M5, flowers sprayed 5 mM SA, R1 progeny, capsules A-E in successive rows) was 30+152. Moreover, the “seedlings exhibiting luciferase activity” value in data set [2] (plants exposed to SA (1, 5 or 50 mM) pooled, 785 out of 2053 seedlings) was determined as 38%. The “shoots exhibiting medium (++) luciferase activity” value in data set [3] (0.1 mM SA, IA and IP1 calli, two out of nine shoots) stood at 22%. Also, the “shoots exhibiting high luciferase activity” value in data set [3] (0.1 mM SA, 1 out of 9 shoots) was found to be 11%; in data set [3] (1 mM SA, 4 out of 16 shoots) it was 25%. The “shoots with luciferase activity (transposition frequency)” value is given as 73% in data set [3] (0.1 mM SA, 33 out of 45 shoots) and 39% in data set [3] (1 mM SA, 27 out of 70 shoots). Moreover, in data set [3] (0.1 mM SA, tobacco calli), the “induction of PR-1a::TPase expression and transposition events” value is “sufficient to induce the expression of PR-1a::TPase”. Besides, in data set [3] (1 mM SA, IA and IP1 calli, 13 out of 25 shoots), the “shoots exhibiting medium (++) or high (+++) luciferase activity” value was 52%. Also, in data set [3] (tobacco callus IC, presence of SA), the “luciferase activity in shoots regenerated from callus” value was “not detected”. In addition, the “luciferase activities of induced shoots versus uninduced shoots” value in data set [3] (tobacco line IK) is listed as “slightly higher”. Moreover, the “shoots exhibiting luciferase activity out of shoots from SA-treated calli” value in data set [3] (tobacco line IM1) is listed as 11 out of 24; in data set [3] (tobacco line IN1) it was 11 out of 20; in data set [3] (tobacco line IP) it was 15 out of 17; in data set [3] (tobacco line IR1), 12 out of 20. Moreover, in data set [4] (50 mM SA sprayed on flowering tissues, watered off after 2 hours), the frequency of fruiting result is given as “marked decrease”. Also, in data set [4] (50 mM SA, plants IA5 and IP6), the “germination frequency of R1 progeny” value is listed as “low germination frequencies”.
